Drawing on US12520844B2 (Bayer Aktiengesellschaft, priority 2020, dated 2026), this text covers LogP and chromatographic logP for 25 compounds.

The term chromatographic logP denotes a lipophilicity value derived from retention on a column.

The nature of this data set: Measurement of Log P values by HPLC on reversed phase columns (EEC directive 79/831 Annex V.A8). It counts as physicochemical. The protocol:
Measurement of Log P values as provided herein was performed according to EEC directive 79/831 Annex V.A8 by HPLC (High Performance Liquid Chromatography) on reversed phase columns with the following methods: • ^[a] Log P value is determined by measurement of LC-UV, in an acidic range, with 0.1% formic acid in water and acetonitrile as eluent (linear gradient from 10% acetonitrile to 95% acetonitrile). • ^[b] Log P value is determined by measurement of LC-UV, in a neutral range, with 0.001 molar ammonium acetate solution in water and acetonitrile as eluent (linear gradient from 10% acetonitrile to 95% acetonitrile). • ^[c] Log P value is determined by measurement of LC-UV, in an acidic range, with 0.1% phosphoric acid and acetonitrile as eluent (linear gradient from 10% acetonitrile to 95% acetonitrile).
If more than one Log P value is available within the same method, all the values are given and separated by “+”.
Calibration was done with straight-chain alkan2-ones (with 3 to 16 carbon atoms) with known Log P values (measurement of Log P values using retention times with linear interpolation between successive alkanones). Lambda-max-values were determined using UV-spectra from 200 nm to 400 nm and the peak values of the chromatographic signals
Take `Cc1ncc(Oc2cccc(C3CC3)c2F)c(C(=O)NC2CCC(C)c3ccccc32)n1` (mixture of isomers) [Compound I-065]: the LogP was 4.40^[a].
As for `Cc1ncc(Oc2cccc(C3CC3)c2F)c(C(=O)NC2CC23CCc2cc(Br)ccc23)n1` (mixture of isomers) [Compound I-091], the LogP is 4.73^[a].
Still for that read-out and setting: the figure for `Cc1nnc(Oc2cccc(C(F)(F)F)c2)c(C(=O)NCC(Cl)c2ccc(Cl)cc2Cl)n1` (racemic) [Compound I-020] is 4.34^[a]; for `Cc1ncc(Oc2cccc(C3CC3)c2F)c(C(=O)NC2CCOc3ccc(F)cc32)n1` (racemic) [Compound I-030] it is 3.62^[a]; for `Cc1ncc(Oc2cccc(C3CC3)c2F)c(C(=O)NC2CCSc3ccc(F)cc32)n1` (racemic) [Compound I-125] it is 3.98^[a].
Still for that read-out and setting: the value for `Cc1ncc(Oc2cccc(C3CC3)c2F)c(C(=O)NCC(F)c2ccc(Cl)c(Cl)c2)n1` (racemic) [Compound I-127] was 4.38^[a].
As for `Cc1ncc(Oc2cccc(C(F)(F)F)c2)c(C(=O)O)n1` [Compound 1-01, 2-methyl-5-[3-(trifluoromethyl)phenoxy]pyrimidine-4-carboxylic Acid], the chromatographic logP came to 1.69.
Still for that read-out and setting: the value for `CCOC(=O)c1nc(C)nnc1Oc1cccc(C(F)(F)F)c1` [Compound 1-02, ethyl 3-methyl-6-[3-(trifluoromethyl)phenoxy]-1,2,4-triazine-5-carboxylate] was 3.18.
`O=C(O)c1nc(C2CC2)ncc1Oc1cccc(C(F)(F)F)c1` [Compound 1-03]: the LogP was 2.49^[a].
Still for that read-out and setting: the value for `COc1ncc(Oc2cccc(C(F)(F)F)c2)c(C(=O)O)n1` [Compound 1-04] was 1.96^[a]; that for `CCOC(=O)c1nc(C2CC2)nnc1Oc1cccc(C(F)(F)F)c1` [Compound 1-05] was 3.95^[a].
The same measure, in the same setting: the value for `CCOC(=O)c1nc(C2CC2)nnc1Oc1cccc(Cl)c1F` [Compound 1-06] was 3.86^[a]; that for `CCOC(=O)c1nc(C2CC2)nnc1Oc1cccc(Br)c1F` [Compound 1-07] was 3.93^[a]; that for `CCOC(=O)c1nc(C2CC2)nnc1Oc1cccc(C2CC2)c1F` [Compound 1-08] was 4.19^[a].
On the same count and under the same terms, the value for `CCOC(=O)c1nc(C2CC2)nnc1Oc1cccc(C)c1F` [Compound 1-09] was 3.78^[a]; that for `CCOC(=O)c1nc(C2CC2)nnc1Oc1cccc(Br)c1` [Compound 1-10] was 3.94^[a]; that for `C#Cc1cccc(Oc2nnc(C3CC3)nc2C(=O)OCC)c1` [Compound 1-11] was 3.59^[a].
As to `CCOC(=O)c1nc(C2CC2)nnc1Oc1cccc(OC)c1` [Compound 1-12], the LogP is 3.37^[a].
On to `O=C(O)c1nc(F)ncc1Oc1cccc(C(F)(F)F)c1` [Compound 1-13], for which the LogP was 1.52^[a].
Same read-out and setting: the figure for `CCc1ncc(Cl)c(C(=O)NCC(F)(F)c2ccc(C)cc2C)n1` [Compound 3-01] is 3.77^[a]; for `Cc1ccc(C(F)(F)CNC(=O)c2nc(C3CC3)ncc2Br)c(C)c1` [Compound 3-02] it is 4.08^[a].
The same measure, in the same setting: the figure for `CSc1ncc(Br)c(C(=O)NCC(F)(F)c2ccc(C)cc2C)n1` [Compound 3-03] is 4.05^[a].
The compound `Cc1ccc(C(F)(F)CNC(=O)c2nc(C)ncc2Br)c(C)c1` [Compound 3-04, 5-bromo-N-[2-(2,4-dimethylphenyl)-2,2-difluoroethyl]-2-methylpyrimidine-4-carboxamide] yielded a chromatographic logP of 3.25.
Still for that read-out and setting: the figure for `Cc1ncc(Oc2cccc(C(F)(F)F)c2)c(C(=O)NCC(F)(F)c2ccc(Cl)cc2)n1` [Compound I-002, N-[2-(4-chlorophenyl)-2,2-difluoroethyl]-2-methyl-5-[3-(trifluoromethyl)phenoxy]pyrimidine-4-carboxamide] is 4.04.
For the compound `Cc1ccc(C(F)(F)CNC(=O)c2nc(C)ncc2Oc2cccc(C(F)(F)F)c2)c(C)c1` [Compound I-003], the LogP is 4.32^[a].
